Experimental findings from ChEMBL document CHEMBL4602687, “Dual Binding to Orthosteric and Allosteric Sites Enhances the Anticancer Activity of a TRAP1-Targeting Drug” (J Med Chem, 2020) are described below.

Numbering of substitutions follows the chain as printed. Active and inactive are the calls of the source. The rule behind the calls is not given here.

For test [1], the target named is T1, Heat shock protein 75 kDa, mitochondrial (Homo sapiens) (UniProt Q12931).
T1 sequence (whole entry): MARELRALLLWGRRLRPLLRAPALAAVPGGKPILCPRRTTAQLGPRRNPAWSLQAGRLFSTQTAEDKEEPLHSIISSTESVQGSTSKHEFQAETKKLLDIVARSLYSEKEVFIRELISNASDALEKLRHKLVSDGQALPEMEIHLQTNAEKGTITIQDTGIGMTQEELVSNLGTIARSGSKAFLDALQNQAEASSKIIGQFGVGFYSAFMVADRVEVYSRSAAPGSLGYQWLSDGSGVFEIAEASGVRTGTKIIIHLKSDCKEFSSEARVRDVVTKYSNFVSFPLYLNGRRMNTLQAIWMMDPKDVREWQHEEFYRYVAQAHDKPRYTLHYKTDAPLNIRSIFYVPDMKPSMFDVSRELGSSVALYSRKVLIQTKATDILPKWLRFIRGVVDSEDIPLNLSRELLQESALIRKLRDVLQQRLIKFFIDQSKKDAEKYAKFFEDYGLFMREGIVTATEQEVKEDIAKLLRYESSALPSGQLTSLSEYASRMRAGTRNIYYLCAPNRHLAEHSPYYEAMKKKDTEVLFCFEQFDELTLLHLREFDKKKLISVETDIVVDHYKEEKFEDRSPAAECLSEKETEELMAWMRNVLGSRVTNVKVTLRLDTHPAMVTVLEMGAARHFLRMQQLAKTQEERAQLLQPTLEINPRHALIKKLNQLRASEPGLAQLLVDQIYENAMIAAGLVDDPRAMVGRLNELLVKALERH
The test is described as follows: Inhibition of TRAP1 in human PC3 cells assessed as reduction in SDHB expression at 5 uM measured after 2 to 12 hrs by Western blot analysis. It is filed as cell-based. The following applies: PC-3.

Test [2] addresses T1, Heat shock protein 75 kDa, mitochondrial (Homo sapiens). The test is described as follows: Inhibition of recombinant wild-type human TRAP1 chaperone activity expressed in Escherichia coli BL21 (DE3) at 5 uM preincubated for 30 mins followed by denatured luciferase and ATP addition by luciferase refolding assay.
The subject of a further test is PC-3. Kind of test: Cytotoxicity against human PC3 cells assessed as reduction in cell viability up to 3 uM measured after 24 hrs by MTT assay. Type of test: functional, cell-based. (In general: Tetrazolium assays rely on reduction of a dye to a coloured formazan, in cell work by metabolically active cells.)
For test [3], the target named is T1, Heat shock protein 75 kDa, mitochondrial (Homo sapiens). The test is described as follows: Binding affinity to recombinant wild-type human TRAP1 ATP site expressed in Escherichia coli BL21 (DE3) assessed as induction of conformational change by measuring closed state population of TRAP1 at 10 uM preincubated for 30 mins followed by ATP addition and measured after 30 mins by TEM analysis (reference value: 52.1 +/- 0.6 %).

The species entered for a further test is Homo sapiens. Kind of test: Inhibition of recombinant full-length human TRAP1 W383/W4F mutant expressed in Escherichia coli BL21 (DE3) assessed as intrinsic fluorescence quenching of tryptophan residues at 10 uM measured after 1 hr by fluorescence spectrophotometric method.
Test [4] addresses T1, Heat shock protein 75 kDa, mitochondrial (Homo sapiens). The test is described as follows: Inhibition of TRAP1 in human PC3 cells assessed as increase in CHOP expression at 5 uM measured after 2 to 12 hrs by Western blot analysis. Type of test: cell-based. The following applies: PC-3.
The test system of the next test is Mus musculus. The test is described as follows: In vivo inhibition of TRAP1 in nude mouse xenografted with human NCI-H460 cells assessed as increase in SIRT3 degradation at 5 mg/kg, ip administered daily by Western blot analysis. Type of test: functional, organism-based. (In xenograft studies the graft and the host belong to different species.)
Another test has as its system NCI-H460. Kind of test: Antitumor activity against human NCI-H460 cells xenografted in nude mouse assessed as tumor growth inhibition at 5 mg/kg, ip administered daily. It is filed as functional, organism-based.
Test [5] concerns T2, Heat shock protein 75 kDa, mitochondrial (Homo sapiens), Q12931 [R114E].
T2 sequence (whole entry): T1 sequence (whole entry) with R114E
The test is described as follows: Stimulation of recombinant […] human TRAP1 R114E mutant ATPase activity expressed in Escherichia coli BL21 (DE3) up to 20 uM preincubated for 0.5 hrs followed by ATP addition and measured after 3 hrs by PiColorLock Gold reagent based colorimetric assay.

The target of test [6] is T1, Heat shock protein 75 kDa, mitochondrial (Homo sapiens). The test is described as follows: Binding affinity to recombinant wild-type human TRAP1 ATP site expressed in Escherichia coli BL21 (DE3) assessed as induction of conformational change by measuring closed state population of TRAP1 at 10 uM measured after 30 mins in absence of ATP by TEM analysis (reference value: 52.1 +/- 0.6 %).

Another test concerns HeLa. Kind of test: Cytotoxicity against human HeLa cells assessed as reduction in cell viability up to 3 uM measured after 24 hrs by MTT assay. Type of test: functional, cell-based.
Test [7] deals with T1, Heat shock protein 75 kDa, mitochondrial (Homo sapiens). Kind of test: Inhibition of TRAP1 in human PC3 cells assessed as reduction in ATP concentration at 10 uM measured after 2 hrs. Type of test: cell-based. To be noted: PC-3.

Consider `Nc1ncnc2c1nc(Sc1cc3c(cc1I)OCO3)n2CCCCCCCCCC[P+](c1ccccc1)(c1ccccc1)c1ccccc1`, for which the inhibition result (in test [1]; in [2]; in the test listed under Homo sapiens; in [4]; with Mus musculus; in [7]) was “Active” each time. The result (with PC-3; in test [5]; in the test with HeLa) was Active. Also, the Activity in test [3] is 94.2%; in test [6], 72.5%. Also, the TGI entry in the test on NCI-H460 was “Active”.
